From patent US11554174B2, “Methods for improved protection and delivery of aminothiols and analogs thereof” (THE BURLINGTON HC RESEARCH GROUP, INC., priority 2015, dated 2023)
Read-outs that look alike come from different tables or passages of the source.

Legend:
[1] = system: radiation-induced tumors; conditions: WR2721 plus radiation; cited from earlier work
[2] = system: radiation-induced tumors; conditions: 400 mg/kg, 206 cGy gamma rays; cited from earlier work
[3] = system: HPRT gene in mouse splenocytes; conditions: cited from earlier work
[4] = system: angiostatin; conditions: cited from earlier work
[5] = system: Sa-NH sarcoma cells; conditions: 50 mg/kg every other day for 6 days; 12 days without; cited from earlier work
[6] = system: Sa-NH tumors; conditions: cited from earlier work
[7] = system: advanced malignant melanoma; conditions: cited from earlier work
[8] = system: normal cells (liver, kidney, small intestine); conditions: cited from earlier work
[9] = children; cited from earlier work
[10] = system: prostate cancer cells; conditions: literature reports; cited from earlier work
[11] = system: TK6 human lymphoblastoid cells; assay type: cell-based; conditions: 1 milliM cyclophosphamide alone, 72 hours
[12] = system: C3H/10T1/2 cells; conditions: 1 milliM; before, during and after radiation exposure; cited from earlier work
[13] = mouse, in vivo; cited from earlier work
[14] = some in vitro studies; cited from earlier work
[15] = mice, aminothiol delivered as the phosphorothioate, cited from earlier work

SMILES: NCCCNCCSP(=O)(O)O [amifostine, S-2-(3-aminopropylamino)-ethylphosphorothioic Acid]
- mice developing tumors [1]: 26%
- extension of total life expectancy [2]: 65 days
- reduction of cyclophosphamide-induced HPRT mutations [3]: 8 fold
- change of angiostatin levels ([4]; 200 mg/ml (instead of 50 mg/ml)): did not change angiostatin levels
- increase of serum angiostatin levels ([4]; mouse, in vivo): 4 fold
- time for tumors to reach ideal size for amputation [5]: 13 days
- effect on pulmonary metastases ([6]; 50 mg/kg): reduced significantly
- effect on pulmonary metastases ([6]; 100 mg/kg): less effective
- effect on metastases ([6]; 200 mg/kg): no effect
- minor responses ([7]; combination of WR2721 and cisplatin, 3 out of 36 patients): 8%
- partial response ([7]; combination of WR2721 and cisplatin): 53%
- level with no observable cytotoxicity ([8]; kidney (in vivo)): > 17,000 picomol/10(6) cells
- level with no observable cytotoxicity ([8]; liver (in vivo)): > 7400 picomol/10(6) cells
- level with no observable cytotoxicity ([8]; small intestine (in vivo)): > 3000 picomol/10(6) cells
- single doses with no untoward effects [9]: up to 2700 mg/m2
- effect upon prostate cancer cells [10]: radioprotective effect

SMILES: O=P1(N(CCCl)CCCl)NCCCO1 (stereo not drawn) [cyclophosphamide]
- cell death [11]: 70%

SMILES: CNCCCNCCCS [WR151326]
- protection factor against neoplastic transformation [12]: 1.8

SMILES: N.N.[Cl][Pt][Cl] [cisplatin]
- partial response ([7]; cisplatin alone): 10%

SMILES: NCCCNCCS [WR-1065, 2-(3-aminopropylamino)-ethanethiol]
- protection factor against neoplastic transformation [12]: 3.23
- 100% effective radioprotective dose [13]: about one half of the MTD
- lowest efficacious concentration [14]: ≥ 0.4 µM
- maximally tolerated dose (MTD) ([15]; i.p.): 432 mg/kg BW
- maximally tolerated dose (MTD) ([15]; p.o.): 720 mg/kg BW
